The term inhibition denotes the percentage by which the read-out fell short of the control. As a reminder, the Kd is the constant that tells how readily two partners part at equilibrium.

Assay [1] deals with T1, human orexin 1 receptor (hOx1R) (Homo sapiens, UniProt O43613).
T1 construct: expressed in transfected cells
T1 sequence (O43613 1-425): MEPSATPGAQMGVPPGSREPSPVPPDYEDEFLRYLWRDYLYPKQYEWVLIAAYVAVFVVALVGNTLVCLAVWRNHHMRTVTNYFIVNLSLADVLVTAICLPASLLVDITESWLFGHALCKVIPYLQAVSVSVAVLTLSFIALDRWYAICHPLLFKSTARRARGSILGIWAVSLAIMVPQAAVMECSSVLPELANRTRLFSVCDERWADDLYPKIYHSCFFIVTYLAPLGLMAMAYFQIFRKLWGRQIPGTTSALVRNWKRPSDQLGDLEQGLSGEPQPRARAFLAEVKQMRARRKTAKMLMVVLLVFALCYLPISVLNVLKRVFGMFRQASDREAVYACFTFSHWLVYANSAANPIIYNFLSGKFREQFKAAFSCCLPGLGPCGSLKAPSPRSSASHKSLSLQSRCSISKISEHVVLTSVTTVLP
The experiment in a line: Calcium accumulation in cells (FLIPR), antagonism of orexin A, hOx1R. In kind it is cell-based. Particulars: for Kd: cells expressing human orexin 1 receptor, IC50 vs orexin A converted by Cheng and Prusoff correction. An outline of the steps:
(§1)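 Serum-starved receptor-expressing cells were loaded with Fluo-4-AM (2 μM) plus probenecid (0.1 mM) in HEPES buffer, pH 7.4, with 1% BSA, and Ca2+ fluorescence was read on FLIPR. Compounds (10^−9–10^−5 M) were added first, and orexin A was added one hour later to measure antagonism.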

Assay [2] addresses T1, human orexin 1 receptor (hOx1R). The experiment in a line: Radioligand binding assay ([125I]orexin A competition), hOx1R. The note with it: CHO or HEK cell membranes, 1 h room temperature. An outline of the steps: (§2)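 Membranes from CHO or HEK cells expressing the human receptor, incubated 1 h at room temperature with […] [125I]orexin A and compound in HEPES pH 7.5 buffer with BSA, MgCl2, CaCl2 and tween.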

Assay [3] deals with T2, human orexin 2 receptor (hOx2R) (Homo sapiens, UniProt O43614).
T2 construct: expressed in transfected cells
T2 sequence (O43614 1-444): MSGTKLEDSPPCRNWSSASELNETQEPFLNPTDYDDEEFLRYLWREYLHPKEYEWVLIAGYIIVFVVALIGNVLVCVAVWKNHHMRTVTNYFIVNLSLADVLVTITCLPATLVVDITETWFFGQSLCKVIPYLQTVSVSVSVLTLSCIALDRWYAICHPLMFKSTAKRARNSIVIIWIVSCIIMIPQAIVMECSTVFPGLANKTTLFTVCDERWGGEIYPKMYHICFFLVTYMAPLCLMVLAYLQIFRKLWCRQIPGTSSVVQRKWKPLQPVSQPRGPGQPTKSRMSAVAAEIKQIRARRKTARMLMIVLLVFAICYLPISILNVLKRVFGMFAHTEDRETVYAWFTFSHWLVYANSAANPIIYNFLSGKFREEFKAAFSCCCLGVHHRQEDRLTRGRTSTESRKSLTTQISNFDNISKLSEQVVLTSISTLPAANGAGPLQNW
The assay can be described thus: Calcium accumulation in cells (FLIPR), antagonism of orexin A, hOx2R. In kind it is cell-based. Particulars: cells expressing human orexin 2 receptor; IC50 vs orexin A converted by Cheng and Prusoff correction. In outline:
as §1

Assay [4] has as its target T2, human orexin 2 receptor (hOx2R). The experiment in a line: Radioligand binding assay ([125I]orexin A competition), hOx2R. The note with it: CHO or HEK cell membranes, 1 h room temperature. An outline of the steps:
as §2

Regarding `CN(C(=O)c1ccccc1)[C@H](CCNC(=O)c1ccc2c(c1)OCO2)Cc1ccccc1` [Example 93, Benzo[1,3]dioxole-5-carboxylic acid [(S)-3-(benzoyl-methyl-amino)-4-phenyl-butyl]-amide], the inhibition at 10 µM in assay [1] (measured at a concentration of 10 μM of compound (cells marked ^a)) worked out at 30%. The dissociation constant (Kd) in assay [2] came out at 3110 nM; in assay [3], 164 nM; in assay [4], 114 nM.
With `CN(C(=O)c1ccccc1)[C@@H](Cc1ccccc1)[C@@H](O)CNC(=O)c1ccccn1` [Example 95, Pyridine-2-carboxylic acid [(2S,3S)-3-(benzoyl-methyl-amino)-2-hydroxy-4-phenyl-butyl]-amide], the Kd in assay [1] was found to be 3430 nM; in assay [2], 3440 nM; in assay [3], 140 nM; in assay [4], 59 nM.
For `Cc1cccc(C(=O)N(C)[C@H](CCNC(=O)c2ccccn2)Cc2ccccc2)c1` [Example 96, Pyridine-2-carboxylic acid {(S)-3-[methyl-(3-methyl-benzoyl)-amino]-4-phenyl-butyl}-amide], in that order: 474 nM, 247 nM, 74 nM and 133 nM.
The matching figures for `Cc1cc(C)cc(C(=O)N(C)[C@H](CCNC(=O)c2ccccn2)Cc2ccccc2)c1` [Example 97, Pyridine-2-carboxylic acid {(S)-3-[(3,5-dimethyl-benzoyl)-methyl-amino]-4-phenyl-butyl}-amide]: 185 nM, 46 nM, 39 nM and 30 nM.
The matching figures for `CN(C(=O)c1ccc(Br)cc1)[C@H](CCNC(=O)c1ccccn1)Cc1ccccc1` [Example 99, Pyridine-2-carboxylic acid {(S)-3-[(4-bromo-benzoyl)-methyl-amino]-4-phenyl-butyl}-amide]: 1110 nM, 1940 nM, 115 nM and 822 nM.
In the case of `CN(C(=O)c1cccc(Br)c1)[C@H](CCNC(=O)c1nc2ccccc2n1C)Cc1ccccc1` [Example 102, 1-Methyl-1H-benzoimidazole-2-carboxylic acid {(S)-3-[(3-bromo-benzoyl)-methyl-amino]-4-phenyl-butyl}-amide], the Kd was determined as 18 nM in assay [1], 28 nM in assay [2], 1 nM in assay [3] and 2 nM in assay [4].
As for `COc1cccc(C(=O)N(C)[C@H](CCNC(=O)c2cccn2C)Cc2ccccc2)c1` [Example 103, 1-Methyl-1H-pyrrole-2-carboxylic acid {(S)-3-[(3-methoxy-benzoyl)-methyl-amino]-4-phenyl-butyl}-amide], the Kd in assay [1] worked out at 1400 nM; in assay [2], 624 nM; in assay [3], 8 nM; in assay [4], 19 nM.
The matching figures for `COc1cc(OC)cc(C(=O)N(C)[C@H](CCNC(=O)c2cccn2C)Cc2ccccc2)c1` [Example 104, 1-Methyl-1H-pyrrole-2-carboxylic acid {(S)-3-[(3,5-dimethoxy-benzoyl)-methyl-amino]-4-phenyl-butyl}-amide]: 609 nM, 123 nM, 4 nM and 6 nM.
On to `COc1cc(F)cc(C(=O)N(C)[C@H](CCNC(=O)c2cccn2C)Cc2ccccc2)c1` [Example 105, 1-Methyl-1H-pyrrole-2-carboxylic acid {(S)-3-[(3-fluoro-5-methoxy-benzoyl)-methyl-amino]-4-phenyl-butyl}-amide], for which the Kd in assay [1] turned out to be 811 nM; in assay [2], 286 nM; in assay [3], 7 nM; in assay [4], 12 nM.
As to `CN(C(=O)c1ccc2c(c1)OC(F)(F)O2)[C@H](CCNC(=O)c1cccn1C)Cc1ccccc1` [Example 107, 1-Methyl-1H-pyrrole-2-carboxylic acid {(S)-3-[(2,2-difluoro-benzo[1,3]dioxole-5-carbonyl)-methyl-amino]-4-phenyl-butyl}-amide], the Kd in assay [1] is 1070 nM; in assay [2], 2510 nM; in assay [3], 54 nM; in assay [4], 162 nM.
For `C[C@H](CNC(=O)c1ccccn1)[C@H](Cc1ccccc1)N(C)C(=O)c1ccccc1` [Example 112, Pyridine-2-carboxylic acid [(2R,3S)-3-(benzoyl-methyl-amino)-2-methyl-4-phenyl-butyl]-amide], in that order: 415 nM, 477 nM, 498 nM and 1160 nM.
For `CN(C(=O)c1ccc2c(c1)OCC2)[C@H](CCNC(=O)c1cccn1C)Cc1ccccc1` [Example 117, 1-Methyl-1H-pyrrole-2-carboxylic acid {(S)-3-[(2,3-dihydro-benzofuran-6-carbonyl)-methyl-amino]-4-phenyl-butyl}-amide], in that order: 987 nM, 444 nM, 65 nM and 81 nM.
For `Cc1cccc(C(=O)N(C)[C@H](CCNC(=O)c2cccn2C)Cc2ccccc2)c1` [Example 119, 1-Methyl-1H-pyrrole-2-carboxylic acid {(8)-3-[methyl-(3-methyl-benzoyl)-amino]-4-phenyl-butyl}-amide], in that order: 534 nM, 249 nM, 4 nM and 14 nM.
With `CCOc1cccc(C(=O)N(C)[C@H](CCNC(=O)c2cccn2C)Cc2ccccc2)c1` [Example 121, 1-Methyl-1H-pyrrole-2-carboxylic acid {(S)-3-[(3-ethoxy-benzoyl)-methyl-amino]-4-phenyl-butyl}-amide], the Kd is 696 nM in assay [1], 206 nM in assay [2], 2 nM in assay [3] and 8 nM in assay [4].
Turning to `CCOc1cc(OCC)cc(C(=O)N(C)[C@H](CCNC(=O)c2cccn2C)Cc2ccccc2)c1` [Example 122, 1-Methyl-1H-pyrrole-2-carboxylic acid {(S)-3-[(3,5-diethoxy-benzoyl)-methyl-amino]-4-phenyl-butyl}-amide], the Kd turned out to be 773 nM in assay [1], 333 nM in assay [2], 24 nM in assay [3] and 21 nM in assay [4].
Turning to `CN(C(=O)c1cccc(OC(F)(F)F)c1)[C@H](CCNC(=O)c1cccn1C)Cc1ccccc1` [Example 123, 1-Methyl-1H-pyrrole-2-carboxylic acid {(S)-3-[methyl-(3-trifluoromethoxy-benzoyl)-amino]-4-phenyl-butyl}-amide], the Kd in assay [1] is 865 nM; in assay [2] it was 1580 nM; in assay [3], 7 nM; in assay [4] it was 30 nM.
For `Cc1cc(F)cc(C(=O)N(C)[C@H](CCNC(=O)c2cccn2C)Cc2ccccc2)c1` [Example 124, 1-Methyl-1H-pyrrole-2-carboxylic acid {(S)-3-[(3-fluoro-5-methyl-benzoyl)-methyl-amino]-4-phenyl-butyl}-amide], in that order: 710 nM, 599 nM, 13 nM and 39 nM.
The matching figures for `Cc1cc(C)cc(C(=O)N(C)[C@H](CCNC(=O)c2cccn2C)Cc2ccccc2)c1` [Example 125, 1-Methyl-1H-pyrrole-2-carboxylic acid {(S)-3-[(3,5-dimethyl-benzoyl)-methyl-amino]-4-phenyl-butyl}-amide]: 230 nM, 176 nM, 2 nM and 7 nM.
The matching figures for `CCCOc1cccc(C(=O)N(C)[C@H](CCNC(=O)c2cccn2C)Cc2ccccc2)c1` [Example 126]: 2100 nM, 2480 nM, 56 nM and 87 nM.

The record behind these values is patent US20100222396A1 (Novartis AG, priority 2009, published 2010).
